Key:
[1] = tested on: organ slice of cat cerebral cortex (cerebral edema); test: inhibition test on cerebral edema using organ slice of cat cerebral cortex (NaHCO3-stimulated swelling); format: cell-based; settings: for IC50: Felis catus, 50 min, cat cerebral cortex slices, NaHCO3 stimulated swelling, 50 minutes at 37° C., pH 7.4, read-out: Inhibitory activity cerebral edema (IC50); for Relative activity (Compound A = 1): relative to Compound A = 1
Procedure: The inhibition test on cerebral edema using organ slice of cat cerebral cortex The test was carried out by the method described in Journal of Medicinal Chemistry, vol. 25 (No. 5) 567 (1982).
That is, brain was isolated from a cat weighing 2-4 kg, slices of about 1 mm in thickness was prepared, the white matter substance was removed, and the gray matter substance (100-150 mg a test) was used for a sample. The sample was added to the following incubation medium and incuvated for 50 minutes at 37° C. After the incubation, the sample was immediately weighed again to determine the swelling weight of the sample. […]
incubation medium (osmotic pressure, 280-290 mOsm/1)
1. Hepes Buffer (pH 7.4) . . . 2.365 ml […]
adjusted to pH 7.4 by NaOH
2. test compounds [dissolved in the presence of tris(hydroxymethyl)aminomethane] or water . . . 0.01 ml 3. 0.2M NaHCO3 (dissolved by Hepes Buffer, giving the final concentration of 10 mM in medium) or Hepes Buffer . . . 0.125 ml The test was carried out by using NaHCO3 as a stimulating agent of swelling.
(A) A percentage of swelling when a slice sample was added to incubation medium comprising Hepes Buffer (1), water (2) and NaHCO3 (3) (defined as maximum of swelling).
(B) A percentage of swelling when a slice sample was added to incubation medium comprising Hepes Buffer ((1)+(3)) and water (2) (defined as maximum inhibition of swelling).
(C) A percentage of swelling when a slice sample was added to incubation medium comprising Hepes Buffer (1), the test compounds in various concentrations (2) and NaHCO3 (3).
Above-mentioned (A), (B) and (C) were determined. Inhibition percentage of the test compounds was caliculated by the following equation: [formula] IC50 value was determined by dose-response curve as a concentration in which inhibition percentage was 50.

acute toxicity test = settings: in vivo, iv; administered intravenously
From the text: On the other hand, it was confirmed that the acute toxicity of the compounds of the present invention was very weak. […] Therefore, compounds of the present invention may be considered to be sufficiently safe and suitable for medical use.

[2] = tested on: organ slice of cat cerebral cortex (cerebral edema); settings: in words, known DCPIB; cited from earlier work

Structure (SMILES) | IC50 [1] [nM] | Relative activity (Compound A = 1) [1] | LD50 (acute toxicity test) [mg/kg] | inhibitory effect on cerebral edema [2]
CC1(C2CCCC2)Cc2cc(O[C@H]3CC[C@H](C(=O)O)C3)c(Cl)c(Cl)c2C1=O (mixture of isomers) [Ex. 2 (a), (1S, 3S)-3-[((2RS)-2-cyclopentyl-2-methyl-6,7-dichloro-1-oxoindan-5-yl)oxy]cyclopentanecarboxylic acid] | 1.5 | 21.3 | 200 to 400 | –
CC1(C2CCCC2)Cc2cc(O[C@H]3CC[C@H](C(=O)O)C3)c(Cl)c(Cl)c2C1=O (relative stereo) [Ex. 2, 1,3-trans-3-[((2RS)-2-cyclopentyl-2-methyl-6,7-dichloro-1-oxoindan-5-yl)oxy]cyclopentanecarboxylic acid] | 2.5 | 12.8 | – | –
C[C@]1(C2CCCC2)Cc2cc(OCCCC(=O)O)c(Cl)c(Cl)c2C1=O [Compound A, (+)-4-[((2R)-2-cyclopentyl-2-methyl-6,7-dichloro-1-oxoindan-5-yl)oxy]butyric acid, reference compound] | 32 | – | – | strong, but the effect is not enough to use in practice

Now from value to molecule, other results behind:

IC50 [1] [nM] | Structure (SMILES) | Relative activity (Compound A = 1) [1] | LD50 (acute toxicity test) [mg/kg] | inhibitory effect on cerebral edema [2]
5.9 | CC1(C2CCCC2)Cc2cc(S[C@H]3CC[C@H](C(=O)O)C3)c(Cl)c(Cl)c2C1=O (mixture of isomers) [Ex. 2 (b), (1S, 3S)-3-[((2RS)-2-cyclopentyl-2-methyl-6,7-dichloro-1-oxoindan-5-yl)thio]cyclopentanecarboxylic acid] | 5.42 | – | –
1.6 | C[C@@]1(C2CCCC2)Cc2cc(O[C@H]3CC[C@H](C(=O)O)C3)c(Cl)c(Cl)c2C1=O [Ex. 2 (c), (1S, 3S)-3-[((2S)-2-cyclopentyl-2-methyl-6,7-dichloro-1-oxoindan-5-yl)oxy]cyclopentanecarboxylic acid] | 20.0 | – | –

— patent US4640931A, “3-(indian-5-yloxy (or thio)) cyclopentanecarboxylic acid analogues” (Ono Pharmaceutical Co., Ltd., priority 1984, dated 1987)
